Laboratory results as given in EP4470536A1, “COMPOUND FOR USE IN TREATING FIBRODYSPLASIA OSSIFICANS PROGRESSIVA (FOP)” (Queen's University At Kingston, priority 2023, dated 2024).

What was measured:
ectopic bone formation = assay: Surgical mouse model of heterotopic ossification (rhBMP2-soaked collagen disk), micro-CT; type: in vivo, CD-1 mouse; details: Day 14
Method: Heterotopic ossification (HO) driven by Bone Morphogenetic Protein (BMP) signaling has been used as a surrogate model for testing the effectiveness of drugs for treating Fibrodysplasia Ossificans Progressiva (FOP) (see, for example, Shimono K., et al. (2011). Nat Med 17, 454-460.). Collagen disks of 1mm in diameter were punched from a thin collagen foam matrix (Avitene™ Ultrafoam™ Collagen Hemostat product #1050050 lot #WBDP0038, from BD, Franklin Lakes, NJ, USA). Disks were impregnated with 1µg total of recombinant human BMP-2 (GenScript, Piscataway, NJ, USA, catalog #Z02913, lot #P50031712) on the day of surgery (5µl of 200ng/µL BMP-2, reconstituted in 20mM acetic acid solution). The rhBMP2-soaked collagen disk was surgically implanted into a small pocket made in the left gastrocnemius muscle of a 6-8 week-old male CD-1 mouse. Beginning on the day following surgery, mice were administered varying doses of compound 1 by oral gavage once daily (QD) or twice daily (every 12h; BID) for 13 days. Doses administered were: vehicle (Corn oil, QD (5M) and BID (3M) dosing or 3% DMSO in Corn oil (2M)), compound 1 18 mg/kg BID, 18 mg/kg QD, 6 mg/kg BID, 4.5 mg/kg BID, and 2 mg/kg BID (6M per group). Palovarotene high and low doses were used as comparators (1.76 mg/kg (4M) and 0.88 mg/kg QD (6M)). The palovarotene high and low doses were selected based on a study for palovarotene (Inubushi, T., et al. (2018). "Palovarotene Inhibits Osteochondroma Formation in a Mouse Model of Multiple Hereditary Exostoses." J Bone Miner Res 33(4): 658-666.), using oral treatment of mice. The inventors also verified the dose selection based on pharmacokinetic (PK) data generated in-house for palovarotene IP (intraperitoneal) and PO (oral) treatment by using the doses for IP treatment from Lees-Shepard, J. B., et al. (2018).
At the study endpoint (Day 14: 16-30 hours after final compound treatment) left hindlimbs were removed and submitted to micro-CT (micro-computed tomography) imaging. Using this preclinical surgical model, the amount of resulting ectopic bone formation after 14 days was visualized for each of the treatment groups (Figure 6). The highly enhancing regions seen within the gastrocnemius muscle corresponded to the amount of ectopic bone formation generated at the site of collagen disk implantation, following 14 days of vehicle or drug treatment.
The hindlimbs obtained in Example 6 above were submitted to micro-CT imaging. CT images were acquired using a VECTor^4CT pre-clinical scanner (MILabs B.V., Utrecht, Netherlands) equipped with a cone beam X-ray CT system. Scans were carried out with an acceleration voltage of 50 kVp and an X-ray tube current of 430 µA in accurate focus mode to obtain 3600 projections over a 360° scan. With a 40 ms exposure time per step, the total scan procedure took about 5 minutes with an estimated radiation dose of 3077 mGy. CT images were consequently processed using MILabs reconstruction software implementing a voxel size of 20 µm and a Hann projection filter of 25 µm to generate 3-dimensional CT images. For quantification, CT images were converted to DICOM® files using PMOD 3.9 software (PMOD Technologies Ltd., Zurich, Switzerland) for rendering using RadiAnt DICOM Viewer 4.2 software (Medixant, Poznań, Poland). The region-of-interest for all hindlimbs, reconstructed from DICOM files, was defined by outlining sites of ectopic ossification. Analysis of total ectopic bone volume was conducted via automated processes using the AnalyzePro software with the Bone Microarchitecture Analysis (BMA) add-on (AnalyzeDirect, Overland Park, Kansas). This software generates bone volume measurements from the defined area, as described by Bouxsein et al (2010). Journal of Bone and Mineral Research, 25(7), 1468-1486. Using this preclinical surgical model, the ability of compound 1 to inhibit HO (percentage from vehicle), as compared to palovarotene, was assessed and is shown in Figure 7 and in Table 1 below.

[1] = Mapping a therapeutic window (ED50 versus MTD); type: in vivo; details: QD, own data compiled with mined literature data
Description: For both palovarotene and compound 1 efficacy and toxicity were correlated to the pharmacokinetic parameters AUC (area under the curve), Cmax (maximum concentration detected following compound administration), and duration above EC50/IC50.This illustrated that efficacy was best predicted by duration above the EC50/IC50 (effective concentration for 50% response (in the case of palovarotene), or for 50% inhibition (in the case of compound 1)), whereas toxicity was best predicted by Cmax. […] For palovarotene, efficacy data from Example 7 and toxicity data from Example 8 above were compiled with mined data from the following publications: • Lindborg et al (2018). "Cartilage-derived retinoic acid-sensitive protein (CD-RAP): A stage-specific biomarker of heterotopic endochondral ossification (HEO) in fibrodysplasia ossificans progressiva (FOP)." Bone 109: 153-157. • Chakkalakal, S. A., et al. (2016). "Palovarotene Inhibits Heterotopic Ossification and Maintains Limb Mobility and Growth in Mice With the Human ACVR1(R206H) Fibrodysplasia Ossificans Progressiva (FOP) Mutation." J Bone Miner Res 31(9): 1666-1675. • Inubushi, T., et al. (2018). "Palovarotene Inhibits Osteochondroma Formation in a Mouse Model of Multiple Hereditary Exostoses." J Bone Miner Res 33(4): 658-666. • Lees-Shepard, J. B., et al. (2018). […] "Potent inhibition of heterotopic ossification by nuclear retinoic acid receptor-gamma agonists." Nat Med 17(4): 454-460.

## CC1(C)CCC(C)(C)c2cc(Cn3cccn3)c(/C=C/c3ccc(C(=O)O)cc3)cc21 [Palovarotene, palovarotene, reference compound]
Ectopic bone formation; 0.88mg/kg
  Mean bone volume (mm^3): 1.985 mm^3
  percent change in HO volume from vehicle mean (%): +2.5%
Ectopic bone formation; 1.76mg/kg QD
  Mean bone volume (mm^3): 0.615 mm^3
  percent change in HO volume from vehicle mean (%): -68.2%
[1]; Mus musculus
  ED50: 0.3 mg/kg
[1]; mouse, in vivo
  MTD: 0.285 mg/kg
